Results on ten compounds are retold here after patent publication US20150126475A1, “PESTICIDAL COMPOSITION AND METHOD FOR CONTROLLING PESTS” (priority 2012, published 2015).

Common to all, as to assay type: in vivo
The test system of experiment [1] is southern root-knot nematode (Meloidogyne incognita). In words: Root knot index on tomato in pots with soil contaminated with southern root-knot nematode (Test Example 1). Set-up: key: visual root knot index, 0 to 100%. As to conditions: non-treated = 100. As to the method: 1 Liter of sand soil having paddy soil sterilized by steam and sand mixed in a volume ratio of 1:1 was put into a 1/1,000,000 ha pot, and a predetermined amount of a test compound was added and mixed. Immediately after addition of the compound, 500 mL of soil contaminated with southern root-knot nematode (Meloidogyne incognita) was put in each pot and sufficiently mixed, and then seedling of tomato (cultivar: yellow pear) were transplantated. On the 33rd to 35th day after transplantation, the root knot index (0 to 100%) formed by nematode was visually determined. The test was carried out by two replications.
Further, theoretical values determined by the Colby's formula are shown in brackets ( ) in Tables.

Another experiment concerns common cutworm. In words: Control of common cutworm larvae on leaf of cabbage grown in treated soil (Test Example 3). Conditions: second-instar larvae, 4th day. An excerpt: (§1) Control value(%)=(1−(number of parasites in treated area)/(number of parasites in non-treated area))×100
Sand soil having sand, non-sterilized soil and sterilized soil mixed in a volume ratio of 1:1:1 was put into a 1/500,000 ha pot, and predetermined amounts of test compounds were sufficiently mixed. Seedlings of cabbage (cultivar: Okina) in 3-leaf stage were transplanted and grown in a greenhouse for 11 days. Then, the fourth leaf of the cabbage was cut, and 10 second-instar larvae of common cutworm were released. On the 4th day, the number of surviving insects was examined, and the control value was determined in the same manner as in Test Example 2. The test was carried out by three replications. Further, theoretical values determined by the Colby's formula are shown in brackets ( ) in Table 5. Further, the combination of fosthiazate and imidacloprid was tested as a Comparative Example.

In the next experiment the test system is larvae of turnip fly. In words: Field test, damage to Daikon radish root by larvae of turnip fly (Test Example 4). As to conditions: 36th day after sowing. As to the method:
Granules of fosthiazate and granules of clothianidin were mixed in predetermined active ingredient amounts, and the mixture was spread on the surface of soil of a field and sufficiently mixed by a small rotary. Seeds of Daikon radish were sown, and on the 36th day after sowing, the degree of damage to the root by larvae of turnip fly was examined by degree, and the damage grade was determined in accordance with the following formula. Further, theoretical values determined by the Colby's formula are shown in brackets ( ) in Table 6. Further, the combination of granules of fosthiazate and granules of imidacloprid was tested as a Comparative Example.
Degree of damage (nil: 0, low: 1, middle: 2, high: 3, enormous: 4)
Damage grade={Σ(damage grade index×number of Daikon radish investigated at each degree of damage)/(total number investigated×4)}×100

Another experiment relates to two-spotted spider mite. Nature of the experiment: Control of two-spotted spider mite on eggplant seedlings in pots (Test Example 2). Conditions: 14th day after treatment. As to the method: 1 Liter of sand soil having paddy soil sterilized by steam and sand mixed in a volume ratio of 1:1 was put into a 1/1,000,000 ha pot, and a predetermined amount of a test compound was added and mixed. Seedlings of eggplant (cultivar: Senryo No. 2) in which 30 adults of two-spotted spider mite (greenish yellow) were parasitic were transplanted and grown in a greenhouse for 5 days, and a test compound was applied to each pot. On the 14th day after treatment, the number of two-spotted spider mite parasitic in each pot was examined. The test was carried out by three replications. The test results are shown in Table 4 by the control value (%). Further, theoretical values determined by the Colby's formula are shown in brackets ( ) in Table 4.
Further, the control value (%) was calculated in accordance with the following formula.
as §1

[2] abbreviates: Table 1, single compound 5000 g a.i./ha, tomato, 33rd to 35th day.
Setting [3] is: Table 3, single compound 5000 g a.i./ha.
The mark [4] stands for this setting: Table 2, single compound 500 g a.i./ha.
[5] abbreviates: single compound granules 500 g a.i/ha.
Where [6] appears, read: single compound granules 750 g a.i/ha.
Where [7] appears, read: single compound granules 1000 g a.i/ha.

Compound `CN/C(=N/CC1CCOC1)N[N+](=O)[O-]` (stereo not shown) [dinotefuran] came in with a Root knot index in experiment [1] (setting [2]) of 97.6.
For `O=C(NC(=O)c1c(F)cccc1F)Nc1ccc(Oc2ccc(C(F)(F)F)cc2Cl)cc1F` [Flufenoxuron, flufenoxuron], the Root knot index in experiment [1] (setting [3]) was 100.
For `Cc1c(F)c(F)c(COC(=O)[C@@H]2[C@H](/C=C(\Cl)C(F)(F)F)C2(C)C)c(F)c1F` (racemic) [Tefluthrin, tefluthrin], the Root knot index in experiment [1] (setting [4]) is listed as 100.
On to `CN1COCN(Cc2cnc(Cl)s2)/C1=N\[N+](=O)[O-]` [thiamethoxam], for which, in experiment [1] (setting [2]), the Root knot index was 95.7.
Turning to `O=[N+]([O-])NC1=NCCN1Cc1ccc(Cl)nc1` [Imidacloprid, imidacloprid], the Control value in the experiment on common cutworm (single compound 156 g a.i/ha) is 6.7%; in the experiment on common cutworm (single compound 313 g a.i/ha), 13.3%. The Damage degree came out at 23.2 in the experiment with larvae of turnip fly (setting [5]), 34.7 in the experiment on larvae of turnip fly (setting [6]) and 26.3 in the experiment with larvae of turnip fly (setting [7]).
Compound `O=C(NC(=O)c1c(F)cccc1F)Nc1cc(Cl)c(F)c(Cl)c1F` [Teflubenzuron, teflubenzuron] returned a Root knot index in experiment [1] (setting [3]) of 100.
Consider `O=C(NC(=O)c1c(F)cccc1F)Nc1cc(Cl)c(Oc2ncc(C(F)(F)F)cc2Cl)c(Cl)c1` [Chlorfluazuron, chlorfluazuron], for which the Root knot index in experiment [1] (setting [3]) is recorded as 100.
As to `CN/C(=N\[N+](=O)[O-])NCc1cnc(Cl)s1` [clothianidin], the Root knot index in experiment [1] (setting [2]) turned out to be 99.3. For the same compound, the Control value with two-spotted spider mite (single compound 400 g a.i/ha) was determined as 35%; in the experiment with two-spotted spider mite (single compound 800 g a.i/ha) it was 48%; in the experiment on two-spotted spider mite (single compound 1500 g a.i/ha), 22%; in the experiment on common cutworm (single compound 156 g a.i/ha), 3.3%; in the experiment with common cutworm (single compound 313 g a.i/ha), 20.0%. For the same compound, the Damage degree in the experiment on larvae of turnip fly (setting [5]) is given as 20.0; with larvae of turnip fly (setting [6]) it was 25.3; with larvae of turnip fly (setting [7]), 0.
`CCOc1ccc([Si](C)(C)CCCc2ccc(F)c(Oc3ccccc3)c2)cc1` [Silafluofen, silafluofen] returned a Root knot index in experiment [1] (setting [4]) of 100.
For `CCOP(=O)(SC(C)CC)N1CCSC1=O` (stereo not shown) [fosthiazate], the Root knot index in experiment [1] (Table 1, single compound 750 g a.i./ha, soil mixing, tomato, 33rd to 35th day) is recorded as 35.4; in experiment [1] (Table 2, single compound 750 g a.i./ha) it was 22.0; in experiment [1] (Table 2, single compound 1500 g a.i./ha) it was 5.0; in experiment [1] (Table 3, single compound 750 g a.i./ha) it was 15.8. Moreover, the Control value with two-spotted spider mite (single compound 6000 g a.i/ha) is listed as 98%; in the experiment with common cutworm (single compound 6000 g a.i/ha), 73.3%. The Damage degree in the experiment with larvae of turnip fly (single compound granules 6000 g a.i/ha, Daikon radish field) is recorded as 33.7.
